Assay results: US20230002774A1, “METHODS AND COMPOSTIONS FOR INHIBITING CORONAVIRAL REPLICATION” (California Institute of Technology, priority 2021, published 2023)
Read-outs that look alike come from different tables or passages of the source.

Columns and labels:
[1] = tested on: H1299 cells; conditions: cell viability at 72 hpi, normalized to mock-infected DMSO-treated control
Procedure: (§3) Cells were seeded using 2×10^5 cells per well in 96-well plates and incubated overnight at 37° C. Cells were treated with the indicated concentration of CB-5083 and infected with virus or mock infected. After 1 h of infection, cells were washed three times with serum-free media and then cultured with media containing 10% FBS and the same concentration of CB-5083. Cultured media was replaced with fresh media at 8 hpi. At 72 hpi, cell viability was measured by CellTiter-Glo® Luminescent Cell Viability Assay (Promega).

[2] = tested on: HCoV-229E
[3] = tested on: HCoV-229E; type: cell-based
[4] = tested on: HCoV-infected H1299 cells; conditions: CB-5083 0.5 mM until 8 hpi, viability at 72 hpi
Procedure: as §3

[5] = tested on: HCoV-OC43; experiment: Stage-limited inhibition assay, viral RNA at 8 hpi, HCoV-OC43 in H1299 cells; type: cell-based; conditions: for viral RNA levels vs vehicle control, inhibitors throughout the experiment (group 2): 1 mM CB-5083 or 2 mM NMS-873, 30 min before infection to 8 hpi, harvested 8 hpi; for viral RNA levels, early treatment (group 3: pretreatment to 0 hpi): 1 mM CB-5083 or 2 mM NMS-873, harvested 8 hpi
Procedure: (§1) Total cell RNA was extracted using the MagMAX mirVana Total RNA Isolation Kit (Thermo Fisher Scientific) with KingFisher systems (Thermo Fisher Scientific). RNA was quantified using NanoDrop Lite Spectrophotometer (Thermo Fisher Scientific). Total RNA ([…]) was reverse transcribed using the High-Capacity cDNA Reverse Transcription Kit (Thermo Fisher Scientific). cDNA samples were used for quantitative TagMan PCR using TaqMan™ Universal Master Mix II, no UNG (Thermo Fisher Scientific), in an QuantStudio™ 5 System (Thermo Fisher Scientific). FAM-MGB-labeled TaqMan probes for the indicated genes were purchased from Thermo Fisher Scientific. The resulting data were analyzed using Excel and GraphPad Prism 8.
(§2) H1299 cells were treated with 0.1% DMSO, […] CB-5083, or […] of NMS-873 from 30 min prior to virus infection until 8 h post-infection. […] Cells were collected at 8 hpi for viral RNA determination.

[6] = tested on: HCoV-229E; experiment: Titer of secreted virus in culture media by TCID50 in H1299 cells, HCoV-229E; type: cell-based
[7] = tested on: HCoV-OC43; conditions: HCoV-OC43, CB-5083 0.5 mM, 8 hpi
Procedure: Cells were fixed with cold 4% paraformaldehyde for 15 min followed by permeabilization/blocking with 10% FBS and 0.2% Triton X-100 for another 1 h. Cells were stained with mouse anti-dsRNA antibody clone rJ2 (1:50) (Sigma-Aldrich, MABE1134) followed by labeling with anti-mouse mouse secondary antibody conjugated to Alexa-488 (Thermo Fisher Scientific). Nuclei were stained with Hoechst. Fluorescent images were acquired using Thermo Scientific™ Invitrogen™ EVOS™ FL Auto 2 Imaging System.
Cells were treated with the indicated concentration of CB-5083 and infected with virus. After 1 h of infection, cells were washed three times with serum-free media and then returned to media containing 2% FBS and the same concentration of CB-5083.

[8] = tested on: HCoV-OC43; experiment: Titer of secreted virus in culture media by TCID50 in H1299 cells, HCoV-OC43; type: cell-based
[9] = tested on: HCoV-229E; experiment: Stage-limited inhibition assay, viral RNA at 8 hpi, HCoV-229E in H1299 cells; type: cell-based; design: dose or concentration left out as unconfirmed
Procedure: as §1, §2

[10] = tested on: HCoV-OC43; type: cell-based; design: HCoV-OC43 viral RNA level reduced: dose or concentration left out as unconfirmed; conditions: CB-5083 until 8 hpi, harvested 24 hpi

Structure (SMILES)	toxicity of the tested concentrations to H1299 cells [1]	dsRNA signals (immunostaining) [2]	HCoV-229E viral RNA level reduced [3]	HCoV-229E viral RNA level, effect of different doses [3]	cell viability increased compared to HCoV-infected and DMSO-treated control [4] [%]	viral RNA levels vs vehicle control, inhibitors throughout the experiment (group 2) [5]	viral RNA levels, early treatment (group 3: pretreatment to 0 hpi) [5]	viral titer of secreted HCoV-229E decreased [6] [%]	dsRNA signals (immunostaining) [7]	viral titer of secreted HCoV-OC43 decreased [8] [%]	viral RNA levels vs vehicle control, inhibitors throughout the experiment (group 2) [9]	viral RNA levels, early treatment (group 3: pretreatment to 0 hpi) [9]	HCoV-OC43 viral RNA level reduced [10]	HCoV-OC43 viral RNA level, effect of different doses [10]	viral RNA levels vs vehicle control, inhibitors throughout the experiment (group 2) ([9]; HCoV-229E, 30 min before infection to 8 hpi, harvested 8 hpi)	viral RNA levels, early treatment (group 3: pretreatment to 0 hpi) ([9]; HCoV-229E, harvested 8 hpi)
Cc1cc2c(C(N)=O)cccc2n1-c1nc2c(c(NCc3ccccc3)n1)COCC2 [CB-5083]	non-toxic	lower dsRNA signals	about 47%	reduced by CB-5083 in a dose-dependent manner	~29	Extensive reduction	only minor or no effects	~81	lower dsRNA signals	~85	Extensive reduction	only minor or no effects	about 40%	reduced by CB-5083 in a dose-dependent manner	–	–
Cc1cc(OCc2nnc(SC3CCCC3)n2-c2cccnc2)ccc1-c1ccc(S(C)(=O)=O)cc1 [NMS-873, 3-[3-cyclopentylsulfanyl-5-[[3-methyl-4-(4-methylsulfonylphenyl)phenoxy]methyl]-1,2,4-triazol-4-yl]pyridine]	–	–	–	–	–	Extensive reduction	only minor or no effects	–	–	–	–	–	–	–	Extensive reduction	only minor or no effects
